In the NIST ThermoML archive (doi:10.1007/s10765-005-5566-6):
Numbers after ± are expanded uncertainties.

Conditions: Gas, Hot wire method

**Q.** Which thermal conductivity (298.89 K, 6100 kPa) does the source give for `O=C=O` [carbon dioxide] here?
**A.** 0.03312 ± 0.00059 W/m/K

**Q.** And the thermal conductivity (299.02 K, 5760 kPa)?
**A.** 0.02896 ± 0.00053 W/m/K

**Q.** What about the thermal conductivity (299.19 K, 5400 kPa) of the same molecule?
**A.** 0.02633 ± 0.00048 W/m/K

**Q.** What about the thermal conductivity (299.31 K, 5035 kPa) of the same molecule?
**A.** 0.02441 ± 0.00045 W/m/K

**Q.** What about the thermal conductivity (299.5 K, 4555 kPa) of the same molecule?
**A.** 0.02268 ± 0.00042 W/m/K

**Q.** And the thermal conductivity (299.6 K, 3980 kPa)?
**A.** 0.02109 ± 0.00039 W/m/K

**Q.** What about the thermal conductivity (299.73 K, 3285 kPa) of the same molecule?
**A.** 0.01968 ± 0.00037 W/m/K

**Q.** What about the thermal conductivity (299.85 K, 2555 kPa) of the same molecule?
**A.** 0.01861 ± 0.00035 W/m/K

**Q.** And the thermal conductivity (300.06 K, 1702 kPa)?
**A.** 0.01777 ± 0.00034 W/m/K

**Q.** And the thermal conductivity (300.37 K, 714 kPa)?
**A.** 0.01712 ± 0.00033 W/m/K

**Q.** What about the thermal conductivity (302.67 K, 6635 kPa) of the same molecule?
**A.** 0.037 ± 0.00066 W/m/K

**Q.** What about the thermal conductivity (302.77 K, 6400 kPa) of the same molecule?
**A.** 0.03309 ± 0.00059 W/m/K

**Q.** What about the thermal conductivity (302.8 K, 6025 kPa) of the same molecule?
**A.** 0.02905 ± 0.00053 W/m/K

**Q.** And the thermal conductivity (302.86 K, 5675 kPa)?
**A.** 0.02694 ± 0.00049 W/m/K

**Q.** What about the thermal conductivity (302.92 K, 5290 kPa) of the same molecule?
**A.** 0.02471 ± 0.00045 W/m/K

**Q.** And the thermal conductivity (302.97 K, 4870 kPa)?
**A.** 0.02339 ± 0.00043 W/m/K

**Q.** And the thermal conductivity (303.08 K, 4340 kPa)?
**A.** 0.02178 ± 0.0004 W/m/K

**Q.** What about the thermal conductivity (303.22 K, 3765 kPa) of the same molecule?
**A.** 0.02053 ± 0.00038 W/m/K

**Q.** And the thermal conductivity (303.51 K, 3160 kPa)?
**A.** 0.01961 ± 0.00037 W/m/K

**Q.** And the thermal conductivity (303.81 K, 2415 kPa)?
**A.** 0.01872 ± 0.00035 W/m/K

**Q.** What about the thermal conductivity (303.99 K, 1612 kPa) of the same molecule?
**A.** 0.01795 ± 0.00034 W/m/K

**Q.** And the thermal conductivity (304.21 K, 724 kPa)?
**A.** 0.01741 ± 0.00033 W/m/K

**Q.** What about the thermal conductivity (324.87 K, 7960 kPa) of the same molecule?
**A.** 0.03214 ± 0.00058 W/m/K

**Q.** And the thermal conductivity (324.9 K, 7750 kPa)?
**A.** 0.03118 ± 0.00056 W/m/K

**Q.** What about the thermal conductivity (324.92 K, 7440 kPa) of the same molecule?
**A.** 0.02954 ± 0.00054 W/m/K

**Q.** What about the thermal conductivity (324.95 K, 5960 kPa) of the same molecule?
**A.** 0.02501 ± 0.00046 W/m/K

**Q.** What about the thermal conductivity (325.01 K, 6900 kPa) of the same molecule?
**A.** 0.02771 ± 0.0005 W/m/K

**Q.** What about the thermal conductivity (325.04 K, 6760 kPa) of the same molecule?
**A.** 0.02716 ± 0.0005 W/m/K

**Q.** And the thermal conductivity (325.1 K, 5575 kPa)?
**A.** 0.02434 ± 0.00045 W/m/K

**Q.** And the thermal conductivity (325.12 K, 6360 kPa)?
**A.** 0.02611 ± 0.00048 W/m/K

**Q.** What about the thermal conductivity (325.28 K, 5060 kPa) of the same molecule?
**A.** 0.02323 ± 0.00043 W/m/K

**Q.** What about the thermal conductivity (325.42 K, 4605 kPa) of the same molecule?
**A.** 0.02254 ± 0.00042 W/m/K

**Q.** What about the thermal conductivity (325.48 K, 4040 kPa) of the same molecule?
**A.** 0.02182 ± 0.0004 W/m/K

**Q.** And the thermal conductivity (325.64 K, 3500 kPa)?
**A.** 0.02126 ± 0.0004 W/m/K

**Q.** And the thermal conductivity (325.81 K, 2880 kPa)?
**A.** 0.02052 ± 0.00038 W/m/K

**Q.** What about the thermal conductivity (325.93 K, 2218 kPa) of the same molecule?
**A.** 0.02003 ± 0.00037 W/m/K

**Q.** What about the thermal conductivity (326.03 K, 1514 kPa) of the same molecule?
**A.** 0.01958 ± 0.00037 W/m/K

**Q.** What about the thermal conductivity (326.17 K, 684 kPa) of the same molecule?
**A.** 0.01921 ± 0.00036 W/m/K

**Q.** What about the thermal conductivity (326.26 K, 497 kPa) of the same molecule?
**A.** 0.0191 ± 0.00036 W/m/K

**Q.** And the thermal conductivity (350.83 K, 9985 kPa)?
**A.** 0.03324 ± 0.0006 W/m/K

**Q.** What about the thermal conductivity (350.89 K, 8840 kPa) of the same molecule?
**A.** 0.03029 ± 0.00055 W/m/K

**Q.** And the thermal conductivity (350.96 K, 7540 kPa)?
**A.** 0.02768 ± 0.0005 W/m/K

**Q.** What about the thermal conductivity (351.12 K, 6040 kPa) of the same molecule?
**A.** 0.02551 ± 0.00047 W/m/K

**Q.** What about the thermal conductivity (351.44 K, 4275 kPa) of the same molecule?
**A.** 0.02351 ± 0.00043 W/m/K

**Q.** What about the thermal conductivity (351.82 K, 2214 kPa) of the same molecule?
**A.** 0.02197 ± 0.0004 W/m/K

**Q.** And the thermal conductivity (351.87 K, 1820 kPa)?
**A.** 0.02181 ± 0.0004 W/m/K

**Q.** What about the thermal conductivity (351.91 K, 1420 kPa) of the same molecule?
**A.** 0.02153 ± 0.0004 W/m/K

**Q.** And the thermal conductivity (352.1 K, 994 kPa)?
**A.** 0.02141 ± 0.00039 W/m/K

**Q.** And the thermal conductivity (352.23 K, 572 kPa)?
**A.** 0.02136 ± 0.00039 W/m/K

**Q.** And the thermal conductivity (375.68 K, 14930 kPa)?
**A.** 0.04175 ± 0.00075 W/m/K

**Q.** What about the thermal conductivity (375.71 K, 13880 kPa) of the same molecule?
**A.** 0.03888 ± 0.0007 W/m/K

**Q.** What about the thermal conductivity (375.75 K, 12560 kPa) of the same molecule?
**A.** 0.03615 ± 0.00065 W/m/K

**Q.** And the thermal conductivity (375.8 K, 11100 kPa)?
**A.** 0.03322 ± 0.0006 W/m/K

**Q.** What about the thermal conductivity (375.85 K, 9640 kPa) of the same molecule?
**A.** 0.03079 ± 0.00056 W/m/K

**Q.** And the thermal conductivity (375.91 K, 8060 kPa)?
**A.** 0.02887 ± 0.00052 W/m/K

**Q.** What about the thermal conductivity (376.01 K, 6260 kPa) of the same molecule?
**A.** 0.02673 ± 0.00049 W/m/K

**Q.** What about the thermal conductivity (376.11 K, 4240 kPa) of the same molecule?
**A.** 0.02504 ± 0.00046 W/m/K

**Q.** And the thermal conductivity (376.28 K, 2004 kPa)?
**A.** 0.02377 ± 0.00043 W/m/K

**Q.** What about the thermal conductivity (376.51 K, 1015 kPa) of the same molecule?
**A.** 0.02346 ± 0.00043 W/m/K

**Q.** What about the thermal conductivity (400.85 K, 15010 kPa) of the same molecule?
**A.** 0.03843 ± 0.00069 W/m/K

**Q.** And the thermal conductivity (400.93 K, 13550 kPa)?
**A.** 0.03623 ± 0.00066 W/m/K

**Q.** What about the thermal conductivity (400.98 K, 11950 kPa) of the same molecule?
**A.** 0.03389 ± 0.00061 W/m/K

**Q.** And the thermal conductivity (401.03 K, 10340 kPa)?
**A.** 0.03194 ± 0.00058 W/m/K

**Q.** And the thermal conductivity (401.15 K, 8495 kPa)?
**A.** 0.03004 ± 0.00054 W/m/K

**Q.** And the thermal conductivity (401.3 K, 6660 kPa)?
**A.** 0.0285 ± 0.00052 W/m/K

**Q.** What about the thermal conductivity (401.42 K, 4600 kPa) of the same molecule?
**A.** 0.02712 ± 0.00049 W/m/K

**Q.** What about the thermal conductivity (401.6 K, 2382 kPa) of the same molecule?
**A.** 0.02597 ± 0.00047 W/m/K

**Q.** And the thermal conductivity (401.66 K, 1690 kPa)?
**A.** 0.02584 ± 0.00047 W/m/K

**Q.** What about the thermal conductivity (401.74 K, 975 kPa) of the same molecule?
**A.** 0.02566 ± 0.00046 W/m/K

**Q.** What about the thermal conductivity (427.12 K, 12000 kPa) of the same molecule?
**A.** 0.03429 ± 0.00062 W/m/K

**Q.** What about the thermal conductivity (427.23 K, 9898 kPa) of the same molecule?
**A.** 0.0325 ± 0.00059 W/m/K

**Q.** What about the thermal conductivity (427.38 K, 8240 kPa) of the same molecule?
**A.** 0.03127 ± 0.00056 W/m/K

**Q.** What about the thermal conductivity (427.51 K, 6160 kPa) of the same molecule?
**A.** 0.02966 ± 0.00053 W/m/K

**Q.** What about the thermal conductivity (427.67 K, 3970 kPa) of the same molecule?
**A.** 0.02879 ± 0.00052 W/m/K

**Q.** And the thermal conductivity (427.7 K, 3020 kPa)?
**A.** 0.02833 ± 0.00051 W/m/K

**Q.** What about the thermal conductivity (427.95 K, 2050 kPa) of the same molecule?
**A.** 0.02812 ± 0.0005 W/m/K

**Q.** And the thermal conductivity (428.05 K, 1040 kPa)?
**A.** 0.02797 ± 0.0005 W/m/K
